# Results from patent US5374623A, “Cysteine protease inhibitors effective for in vivo use” (Prototek, Inc., priority 1992, dated 1994).
# Experiments:
# [1] = system: Soluble extracts of P. vinckei; assay: Proteolytic activity of P. vinckei soluble extracts, substrate Z-Phe-Arg-AFC; assay type: biochemical; details: read-out: IC50, proteolytic activity of P. vinckei extract
# Procedure: (§1) Treatment of Malaria with Mu-Phe-HPhe-O-Ph. Soluble extracts of P. falciparum and P. vinckei were prepared and proteolytic activity was assayed with fluorogenic peptide substrate Z-Phe-Arg-AFC. The activity of control samples was compared with activities in the presence of multiple concentrations of Mu-Phe-HPhe-O-Ph. The concentrations at which activity was inhibited by 50% (IC50) was calculated.
# as §1, with “with Mu-Leu-HPhe-O-Ph.” for “with Mu-Phe-HPhe-O-Ph.”, “of Mu-Leu-HPhe-O-Phe.” for “of Mu-Phe-HPhe-O-Ph.”, “The concentration” for “The concentrations”, “by 50%.” for “by 50%”
# as §1, with “with Mu-Phe-Arg(NO2)-O-Ph.” for “with Mu-Phe-HPhe-O-Ph.”, “of Mu-Phe-Arg(NO2)-O-Ph.” for “of Mu-Phe-HPhe-O-Ph.”, “The concentration” for “The concentrations”
# as §1, with “with Mu-Tyr(OCH3)2 -HPhe-O-Ph.” for “with Mu-Phe-HPhe-O-Ph.”, “samples as” for “samples was”, “of Mu-Tyr(OCH3)2 -HPhe-O-Ph.” for “of Mu-Phe-HPhe-O-Ph.”, “The concentration” for “The concentrations”
# [2] = system: DBA/Lac mice injected with type II chick collagen; assay: Type II collagen arthritis in mice, oral 10 mg/kg/day (Example 13); assay type: in vivo; details: gavage 10 mg/kg/day, day 21 to day 49
# Procedure: DBA/Lac mice were injected with 200 μg of type II chick collagen emulsified in Freund's complete adjuvant on day 0 and on day 21. Mu-Phe-HPhe-O-Ph was suspended in an ethanol solution which was then diluted to 10% (aq) and administered by gavage at a dose of 10 mg/kg/day from day 21 until sacrifice at day 49. The severity of joint inflammation was evaluated grossly at seven day intervals beginning on day 21. The effect of oral administration of Mu-Phe-HPhe-O-Ph on the severity of bone lesions in adjuvant-induced arthritis wa determined by evaluating osseous mineralization, periostat proliferation, bone erosion, joint space narrowing and osseous fragmentation. All lesions were scored on a scale of 0 (normal architecture) to 3 (severe or marked changes). Values calculated were means values ±1 std. error of the mean. […] The effect of oral administration of Mu-Phe-HPhe-O-Ph on the histological aspects of adjuvant-induced arthritis was determined by evaluating inflammation, focul ulcers, tibiotarsal joint cartilage destruction, bone destruction and periosteal proliferation. Inflammation was scored on a scale of 0 (no inflammation) to 3 (severe) based on the extent of edema and cell infiltration. Focul ulcer cartilage destruction was measured as the percent of articular cartilage surfaces with focal destruction which exposed underlying subchondral bone. […]
# [3] = system: DBA/Lac mice injected with type II chick collagen; assay: Type II collagen arthritis in mice, oral 3-25 mg/kg/day (Example 14); assay type: in vivo; details: gavage 3 to 25 mg/kg/day in phosphate buffered saline, day 21 to day 35; scale 0-3
# Procedure: DBA/Lac mice were injected with 200 μg of type II chick collagen emulsified in Complete Freund's Adjuvant on day 0 and on day 21. Mu-Phe-HPhe-O-Ph was suspended in phosphate buffered saline and administered by gavage from day 21 until sacrifice at day 35. Doses of between 3 mg/kg/day and 25 mg/kg/day were used, with the daily dosage being held constant over time for each test. The severity of joint inflammation was evaluated grossly at seven day intervals beginning on day 21. The effect of oral administration of Mu-Phe-HPhe-O-Ph on the severity of bone lesions in adjuvant-induced arthritis was determined by evaluating osseous mineralization, periostat proliferation, bone erosion, joint space narrowing and osseous fragmentation. All lesions were scored on a scale of 0 (normal architecture) to 3 (severe or marked changes). Values calculated were mean values ±1 std. error of the mean.
# [4] = system: bone resorption; assay: In vivo bone resorption by urinary 14C-tetracycline excretion in rats
# Procedure: Treatment of Osteo Arthritis with Mu-Phe-HPhe-O-Ph. The skeletons of young growing rats were radioactively labelled by injections with ^14 C-tetracycline over a 10 day period. The amount of bone resorption was then determined each day as the amount of radioactivity excreted in the urine. After 10 days of control excretion, test compounds were administered for three days subcutaneously and their effects on the daily excretion of tetracycline were determined. Tested compounds were dissolved in DMSO/PEG at a concentration of 25 mg/ml and were injected once per day subcutaneously in a volume of 2 ml/kg. Treatment of Osteo Arthritis with Mu-Leu-HPhe-O-Ph. The skeletons of young growing rats were radioactively labelled by injections with ^14 C-tetracycline over a 10 day period. The amount of bone resorption was then determined each day as the amount of radioactivity excreted in the urine. After 10 days of control excretion, test compounds were administered for three days subcutaneously and their effects on the daily excretion of tetracycline were determined. Tested compounds were dissolved in DMSO/PEG at a concentration of 25 mg/ml and were injected once per day subcutaneously in a volume of 2 ml/kg.
smiles,measurement,setting,value
"O=C(O)Cc1ccccc1OCC(=O)[C@H](CCc1ccccc1)NC(=O)[C@H](Cc1ccccc1)NC(=O)N1CCOCC1 [Mu-Phe-HPhe-O-Ph, (4-morpholinylcarbonyl)-L-phenylalanyl-L-homophenylalanyl-(2-carboxymethyl)phenoxymethyl ketone]",IC50,[1],5.1 nM
same,histological aspects values vs control animals,"[2]; inflammation, focul ulcers, tibiotarsal joint cartilage destruction, bone destruction, periosteal proliferation",significantly (p<0.05) lower than the values of control animals
same,bone lesion severity values vs control animals,"[2]; osseous mineralization, periostat proliferation, bone erosion, joint space narrowing, osseous fragmentation, scale 0-3",significantly (p<0.05) lower than the values of control animals
same,bone lesion severity values vs control animals,[3],significantly (p<0.05) lower than the values of control animals
same,inhibition of bone resorption in vivo as measured by tetracycline excretion,"[4]; subcutaneous once per day for three days, 25 mg/ml in DMSO/PEG, 2 ml/kg",as great as that of a maximal dose of calcitonin
same,time of maximum effect after dosing commenced,"[4]; subcutaneous once per day, 25 mg/ml, 2 ml/kg",24 h
same,findings at the sites of injection at end of experiment,"[4]; subcutaneous, DMSO/PEG, three days, histology: inflammation of subcutaneous fat, tissue necrosis",lesions were visible at the sits of injection
